# Values quoted from earlier work, collected in patent publication EP3094315B1, “PHARMACEUTICAL COMPOSITION COMPRISING ARIPIPRAZOLE OR SALT THEREOF” (Pharmathen S.A., priority 2014, dated 2015).
# Like-named read-outs stand apart in the source and are kept apart here.
smiles,measurement,setting,value
"O=C1CCc2ccc(OCCCCN3CCN(c4cccc(Cl)c4Cl)CC3)cc2N1 [Aripiprazole, 7-{4-[4-(2,3-dichlorophenyl)piperazin-1-yl]butoxy}-3,4-dihydroquinolin-2(1H)-one]",solubility,"in N,N-dimethyl formamide",freely soluble
same,solubility,in dichloromethane,freely soluble
same,solubility,in water,practically insoluble
